According to PMC2784364, “VX-166: a novel potent small molecule caspase inhibitor as a potential therapy for sepsis” (Critical Care, 2009):

Columns and labels:
[1] = system: Jurkat cells; assay: Staurosporine induced apoptosis in Jurkat cells, Annexin V; type: cell-based; settings: Human Jurkat cell line/Annexin V, n = 4, read-out: IC50, inhibition of apoptosis
Experimental: (§1) Jurkat cells were obtained from LGC Standards (Teddington, UK) and were grown in RPMI 1640, 10% FCS, 2 mM L-glutamine, 100 U/ml penicillin and 0.1 mg/ml streptomycin (all from Sigma Aldrich Ltd., Poole, UK) at 37°C in 5% CO2/95% humidity. Receptor- or stress-mediated apoptosis (2 × 10^5 cells/ml) was induced by addition of either anti-Fas antibody CH-11 (10 ng/ml, Millipore UK Ltd., Watford, UK), TNF-α (20 ng/ml, R&D Systems, Abingdon, UK) with cycloheximide (112 ng/ml, Sigma Aldrich Ltd., Poole, UK) or staurosporine (350 ng/ml, Sigma Aldrich Ltd., Poole, UK). VX-166 was diluted into DMSO (10 mM), further diluted in media and added at a range of concentrations. Cells were then incubated for 18 hours. Apoptotic cells were then labelled with Cy5-conjugated Annexin-V (BD Biosciences, Oxford, UK) and detected using a FMAT™ 8100 Fluorimetric Microassay Technology Reader (Applied Biosystems, Warrington, UK). For the experiments using anti-Fas antibody, apoptosis was additionally measured using a Cell Death Detection ELISA kit (Roche Diagnostics Ltd., Lewes, UK) following the manufacturer's instructions.

[2] = system: Sprague-Dawley rats; assay: CLP rat, thymus weight; type: in vivo; settings: 25 mg/ml pump, P < 0.01
Experimental: CLP studies were performed in accordance with the National Institutes of Health guidelines for the use of experimental animals and were approved by the Institutional Animal Care and Use Committee of the Feinstein Institute for Medical Research. Adult male Sprague-Dawley rats (weighing 275 to 325 g, Charles River Laboratories, Wilmington, MA, USA) were fasted overnight then anaesthetised with isoflurane. The caecum was exposed via a 2 cm midline incision. It was ligated just distal to the ileocaecal valve, then punctured twice with an 18-gauge needle and gently squeezed to release a small amount of faecal material to ensure patency of the perforation sites before the abdominal incision was closed. Sham-operated rats underwent the same procedure with the exception that the caecum was neither ligated nor punctured. Animals received subcutaneous fluids (30 ml/kg saline) immediately after the procedure. No antibiotics were administered. In the 7 and 10 day survival studies animals were re-anaesthetised 20 hours after CLP, the perforated caecum was removed and the abdominal cavity washed twice with 40 ml of warm, sterilised saline. The abdominal cavity was closed, anaesthetics withdrawn and rats returned to their cages where they were allowed free access to food and water. In the 20 hour endpoint study the caecum was not removed. […]

[3] = Counterscreening panel (MDS Pharma Services); settings: 5 μM, data not shown
Experimental: Active recombinant caspase-1, -3, -4, -7 and -8 were prepared as described previously. Caspase-2 was purchased from Biomol (Exeter, UK), caspase-6 from BD Biosciences (Oxford, UK), caspase-9 from Europa Bioproducts Ltd. (Cambridge, UK) and caspase-10 from Chemicon International Inc. (Harrow, UK). Cathepsin B and granzyme B were purchased from Merck Biosciences Ltd. (Nottingham, UK). Fluorogenic protease substrates were purchased from Bachem Ltd. (St. Helens, UK). All reactions were carried out at 37°C using a Molecular Devices (Wokingham, UK) Gemini plate-reader at 460 nm (excitation wavelength of 390 nm). Caspase inhibition assays were conducted, with minor modifications, as described by Margolin and colleagues. Irreversible kinetics were analysed by calculations of second-order inactivation rate constants (k) using GraphPad (La Jolla, CA, USA) Prism 4.0 software. A larger number for an inactivation rate constant indicates a greater degree of inactivation. To determine the inhibitory effect on cathepsin B, 4.25 nM of the enzyme were added to 250 μM z-RR-AMC in 10 mM 2-morpholino-ethanesulfonic acid pH 6.0, 1 mM DTT, 1 mM EDTA and 0.03% Brij35 in the presence or absence of VX-166 and the reaction monitored continuously over 15 minutes. Granzyme B was assayed, with minor modifications, as described by Thornberry and colleagues. […]

[4] = system: Sprague-Dawley rats; assay: Caecal ligation and puncture in the rat, survival; type: in vivo; settings: rat CLP; for survival at day 10: control 40%
Experimental: CLP studies were performed in accordance with the National Institutes of Health guidelines for the use of experimental animals and were approved by the Institutional Animal Care and Use Committee of the Feinstein Institute for Medical Research. Adult male Sprague-Dawley rats (weighing 275 to 325 g, Charles River Laboratories, Wilmington, MA, USA) were fasted overnight then anaesthetised with isoflurane. The caecum was exposed via a 2 cm midline incision. It was ligated just distal to the ileocaecal valve, then punctured twice with an 18-gauge needle and gently squeezed to release a small amount of faecal material to ensure patency of the perforation sites before the abdominal incision was closed. Sham-operated rats underwent the same procedure with the exception that the caecum was neither ligated nor punctured. Animals received subcutaneous fluids (30 ml/kg saline) immediately after the procedure. No antibiotics were administered. In the 7 and 10 day survival studies animals were re-anaesthetised 20 hours after CLP, the perforated caecum was removed and the abdominal cavity washed twice with 40 ml of warm, sterilised saline. The abdominal cavity was closed, anaesthetics withdrawn and rats returned to their cages where they were allowed free access to food and water. In the 20 hour endpoint study the caecum was not removed. In this study blood samples were collected by cardiac puncture under terminal anaesthesia into heparinised syringes for the subsequent measurement of IL-1β and bacterial endotoxin, while the thymus was removed for analysis of thymocyte apoptosis.
Alzet® mini-osmotic pumps (Durect Corporation, Cupertino, CA, USA) were used for continuous delivery of VX-166 or vehicle (25% dimethyl sulphoxide: 75% propylene glycol). Pumps with a 2 ml reservoir capacity and a 10 μl//h delivery rate were used in all studies. These pumps are designed to deliver for seven days and so would have expired two to three days before the end of the 10 day survival studies. The mini-osmotic pumps were filled with VX-166 (5 to 25 mg/ml or vehicle) and primed overnight at 37°C prior to subcutaneous implantation in anaesthetised rats. The 25 mg/ml concentration of VX-166 equates to an approximate dose of 0.83 mg/kg/h for a 300 g rat. The pumps were implanted immediately following CLP, except in the delayed onset of treatment study in which pumps were implanted either immediately following CLP (0 hour) or 3 or 8 hours following CLP. Sham-operated rats were implanted with vehicle filled mini-osmotic pumps.

[5] = system: Jurkat cells; assay: Anti-Fas induced apoptosis in Jurkat cells, Annexin V; type: cell-based, human; settings: Anti-Fas, Human Jurkat cell line/Annexin V, 18 hours, n = 4; read-out: IC50, inhibition of apoptosis
Experimental: as §1

[6] = system: PBMC; assay: PBMC viability (MTS assay); type: cell-based, human; settings: MTS assay conducted simultaneously with cytokine release assays
Experimental: Peripheral blood mononuclear cells (PBMC) from healthy donors were isolated by Ficoll-Paque gradient centrifugation from buffy coats obtained from the National Blood Transfusion Service (Bristol, UK). For IL-1β release, 5 × 10^5 cells/ml were then stimulated with 50 ng/ml lipopolysaccharide (LPS) from Escherichia coli (Sigma-Aldrich Ltd., Poole, UK) in the presence or absence of VX-166 and incubated for 18 hours. Secretion of IL-1β into the supernatant was determined by ELISA (R&D Systems, Abingdon, UK) following the manufacturer's instructions. For IL-18 release, 7.5 × 10^5 cells/ml were stimulated with 6.25 × 10^-4% (w/v) Staphylococcus aureus cell suspension (SAC; Sigma-Aldrich Ltd., Poole, UK) in the presence or absence of VX-166 and incubated overnight. The IL-18 content in the supernatants was quantified by ELISA (Caltag-MedSystems Ltd., Buckingham, UK) following the manufacturer's instructions. In both assays PBMC viability was assessed after the 18 hours incubation time using MTS assay (Promega UK Ltd., Southampton, UK) to ensure that the reduction in cytokine release was not caused by a cytotoxic effect of the compound.

[7] = system: Jurkat cells; assay: Anti-Fas induced apoptosis in Jurkat cells, DNA fragmentation (Cell Death Detection ELISA); type: cell-based; settings: Human Jurkat cell line/DNA fragmentation, n = 4, read-out: IC50, inhibition of apoptosis
Experimental: as §1

What does the source list for `CCC(C(=O)NC(CC(=O)O)C(=O)COc1c(F)c(F)cc(F)c1F)n1cccc(NC(=O)OC)c1=O` (centres unmarked) [VX-166]?
IC50 [1]: 255 ± 155 nM; thymus weight of surviving rats on day 10 vs control [2]: significantly higher weight; cross-reactivity in panel of 83 enzymes, ion channels and receptors (28 proteases) [3]: No significant cross-reactivity; survival over 10 days compared with vehicle control, second study ([4]; 25 mg/ml mini-osmotic pump immediately after CLP, n = 16): improved survival; survival at day 7 ([4]; 25 mg/ml mini-osmotic pump implanted immediately following CLP, n = 12, control 25%): 67%; survival at day 10 ([4]; 25 mg/ml pump started 0 hours after CLP, n = 12, P = 0.026): 83%; survival at day 10 ([4]; 25 mg/ml pump started 3 hours after CLP, n = 12, P = 0.009): 92%; survival at day 10 ([4]; 25 mg/ml pump started 8 hours after CLP, n = 12, P = 0.19): 66%; IC50 [5]: 27 ± 9 nM; cytotoxic effect in PBMC viability assay [6]: not due to a cytotoxic effect; IC50 [7]: 45 ± 7 nM
